From ChEMBL document CHEMBL3046843, “Synthesis and investigation of anti-inflammatory activity of novel nitric oxide donating hybrid drugs” (Med Chem Res, 2013)

Tests used:
Mus musculus [1] = experiment: Analgesic activity in Mus musculus (mouse) assessed as inhibition of acetic acid-induced writhing at 14 mg/kg, po measured after 25 min relative to control; assay type: functional
Rattus norvegicus [2] = experiment: Anti-inflammatory activity in Rattus norvegicus (rat) assessed as inhibition of carrageenan-induced paw edema at 14 mg/kg, po administered at 1 hr prior to carrageenan-challenge measured after 1 hr relative to control; assay type: functional
Rattus norvegicus [3] = experiment: Anti-inflammatory activity in Rattus norvegicus (rat) assessed as inhibition of carrageenan-induced paw edema at 14 mg/kg, po administered at 1 hr prior to carrageenan-challenge measured after 3 hr relative to control; assay type: functional
Rattus norvegicus [4] = experiment: Ulcerogenic activity in fasted albino Rattus norvegicus (rat) assessed as stomach mucosal injury at 14 mg/kg, po administered QD for 3 days measured on day 4 by electron microscopic analysis; assay type: toxicity, organism-based; parameters: dose 14 mg/kg, route oral; details: in vivo, 72 h
Rattus norvegicus [5] = experiment: Anti-inflammatory activity in Rattus norvegicus (rat) assessed as inhibition of carrageenan-induced paw edema at 14 mg/kg, po administered at 1 hr prior to carrageenan-challenge measured after 2 hr relative to control; assay type: functional
Rattus norvegicus [6] = experiment: Anti-inflammatory activity in Rattus norvegicus (rat) assessed as inhibition of carrageenan-induced paw edema at 14 mg/kg, po administered at 1 hr prior to carrageenan-challenge measured after 4 hr relative to control; assay type: functional
Rattus norvegicus [7] = experiment: Ulcerogenic activity in fasted albino Rattus norvegicus (rat) at 14 mg/kg, po administered QD for 3 days measured on day 4; assay type: toxicity, organism-based; parameters: dose 14 mg/kg, route oral; details: in vivo, 72 h
[8] = Induction of nitric oxide release in phosphate buffer at 10^-4 M after 1 hr at pH 7.4 by Griess method in presence of L-cysteine relative to control; assay type: physicochemical; details: pH 7.4, 1 h, 100 µM
Rattus norvegicus [9] = experiment: Ulcerogenic activity in fasted albino Rattus norvegicus (rat) at 13 mg/kg, po administered QD for 3 days measured on day 4; assay type: toxicity, organism-based; parameters: dose 13 mg/kg, route oral; details: in vivo, 72 h
Rattus norvegicus [10] = experiment: Anti-inflammatory activity in Rattus norvegicus (rat) assessed as inhibition of carrageenan-induced paw edema at 13 mg/kg, po administered at 1 hr prior to carrageenan-challenge measured after 1 hr relative to control; assay type: functional
Rattus norvegicus [11] = experiment: Anti-inflammatory activity in Rattus norvegicus (rat) assessed as inhibition of carrageenan-induced paw edema at 13 mg/kg, po administered at 1 hr prior to carrageenan-challenge measured after 4 hr relative to control; assay type: functional
Rattus norvegicus [12] = experiment: Anti-inflammatory activity in Rattus norvegicus (rat) assessed as inhibition of carrageenan-induced paw edema at 13 mg/kg, po administered at 1 hr prior to carrageenan-challenge measured after 2 hr relative to control; assay type: functional
Rattus norvegicus [13] = experiment: Ulcerogenic activity in fasted albino Rattus norvegicus (rat) assessed as stomach mucosal injury at 13 mg/kg, po administered QD for 3 days measured on day 4 by electron microscopic analysis; assay type: toxicity, organism-based; parameters: dose 13 mg/kg, route oral; details: in vivo, 72 h
Rattus norvegicus [14] = experiment: Anti-inflammatory activity in Rattus norvegicus (rat) assessed as inhibition of carrageenan-induced paw edema at 13 mg/kg, po administered at 1 hr prior to carrageenan-challenge measured after 3 hr relative to control; assay type: functional
Mus musculus [15] = experiment: Analgesic activity in Mus musculus (mouse) assessed as inhibition of acetic acid-induced writhing at 13 mg/kg, po measured after 25 min relative to control; assay type: functional
Rattus norvegicus [16] = experiment: Anti-inflammatory activity in Rattus norvegicus (rat) assessed as inhibition of carrageenan-induced paw edema at 10 mg/kg, po administered at 1 hr prior to carrageenan-challenge measured after 3 hr relative to control; assay type: functional
Rattus norvegicus [17] = experiment: Anti-inflammatory activity in Rattus norvegicus (rat) assessed as inhibition of carrageenan-induced paw edema at 10 mg/kg, po administered at 1 hr prior to carrageenan-challenge measured after 4 hr relative to control; assay type: functional
Rattus norvegicus [18] = experiment: Anti-inflammatory activity in Rattus norvegicus (rat) assessed as inhibition of carrageenan-induced paw edema at 10 mg/kg, po administered at 1 hr prior to carrageenan-challenge measured after 1 hr relative to control; assay type: functional
Mus musculus [19] = experiment: Analgesic activity in Mus musculus (mouse) assessed as inhibition of acetic acid-induced writhing at 10 mg/kg, po measured after 25 min relative to control; assay type: functional
Rattus norvegicus [20] = experiment: Anti-inflammatory activity in Rattus norvegicus (rat) assessed as inhibition of carrageenan-induced paw edema at 10 mg/kg, po administered at 1 hr prior to carrageenan-challenge measured after 2 hr relative to control; assay type: functional
Rattus norvegicus [21] = experiment: Ulcerogenic activity in fasted albino Rattus norvegicus (rat) at 10 mg/kg, po administered QD for 3 days measured on day 4; assay type: toxicity, organism-based; parameters: dose 10 mg/kg, route oral; details: in vivo, 72 h
Mus musculus [22] = experiment: Analgesic activity in Mus musculus (mouse) assessed as inhibition of acetic acid-induced writhing at 12 mg/kg, po measured after 25 min relative to control; assay type: functional
Rattus norvegicus [23] = experiment: Ulcerogenic activity in fasted albino Rattus norvegicus (rat) at 12 mg/kg, po administered QD for 3 days measured on day 4; assay type: toxicity, organism-based; parameters: dose 12 mg/kg, route oral; details: in vivo, 72 h
Rattus norvegicus [24] = experiment: Anti-inflammatory activity in Rattus norvegicus (rat) assessed as inhibition of carrageenan-induced paw edema at 12 mg/kg, po administered at 1 hr prior to carrageenan-challenge measured after 3 hr relative to control; assay type: functional
Rattus norvegicus [25] = experiment: Anti-inflammatory activity in Rattus norvegicus (rat) assessed as inhibition of carrageenan-induced paw edema at 12 mg/kg, po administered at 1 hr prior to carrageenan-challenge measured after 4 hr relative to control; assay type: functional
Rattus norvegicus [26] = experiment: Anti-inflammatory activity in Rattus norvegicus (rat) assessed as inhibition of carrageenan-induced paw edema at 12 mg/kg, po administered at 1 hr prior to carrageenan-challenge measured after 1 hr relative to control; assay type: functional
Rattus norvegicus [27] = experiment: Anti-inflammatory activity in Rattus norvegicus (rat) assessed as inhibition of carrageenan-induced paw edema at 12 mg/kg, po administered at 1 hr prior to carrageenan-challenge measured after 2 hr relative to control; assay type: functional
Rattus norvegicus [28] = experiment: Anti-inflammatory activity in Rattus norvegicus (rat) assessed as inhibition of carrageenan-induced paw edema at 20 mg/kg, po administered at 1 hr prior to carrageenan-challenge measured after 2 hr relative to control; assay type: functional
Rattus norvegicus [29] = experiment: Anti-inflammatory activity in Rattus norvegicus (rat) assessed as inhibition of carrageenan-induced paw edema at 20 mg/kg, po administered at 1 hr prior to carrageenan-challenge measured after 1 hr relative to control; assay type: functional
Rattus norvegicus [30] = experiment: Anti-inflammatory activity in Rattus norvegicus (rat) assessed as inhibition of carrageenan-induced paw edema at 20 mg/kg, po administered at 1 hr prior to carrageenan-challenge measured after 3 hr relative to control; assay type: functional
Rattus norvegicus [31] = experiment: Anti-inflammatory activity in Rattus norvegicus (rat) assessed as inhibition of carrageenan-induced paw edema at 20 mg/kg, po administered at 1 hr prior to carrageenan-challenge measured after 4 hr relative to control; assay type: functional
Mus musculus [32] = experiment: Analgesic activity in Mus musculus (mouse) assessed as inhibition of acetic acid-induced writhing at 20 mg/kg, po measured after 25 min relative to control; assay type: functional

CC(=O)Nc1ccc(OC(=O)c2ccccc2N(CCO[N+](=O)[O-])c2ccccc2)cc1
inhibition in vivo at 14 mg/kg (Mus musculus [1]): 15.4%
inhibition in vivo at 14 mg/kg (Rattus norvegicus [2]): 26.7%
inhibition in vivo at 14 mg/kg (Rattus norvegicus [3]): 65.8%
Activity (Rattus norvegicus [4]): Non-toxic
inhibition in vivo at 14 mg/kg (Rattus norvegicus [5]): 55.2%
inhibition in vivo at 14 mg/kg (Rattus norvegicus [6]): 59.6%
Activity (Rattus norvegicus [7]): Non-toxic
Activity [8]: 10.71%

CC(=O)Nc1ccc(OC(=O)c2ccccc2N(CCO[N+](=O)[O-])c2ccc([N+](=O)[O-])cc2)cc1
Activity (Rattus norvegicus [9]): Non-toxic
inhibition in vivo at 13 mg/kg (Rattus norvegicus [10]): 6.67%
inhibition in vivo at 13 mg/kg (Rattus norvegicus [11]): 32.1%
inhibition in vivo at 13 mg/kg (Rattus norvegicus [12]): 11.9%
Activity (Rattus norvegicus [13]): Non-toxic
Activity [8]: 6.98%
inhibition in vivo at 13 mg/kg (Rattus norvegicus [14]): 23.3%
inhibition in vivo at 13 mg/kg (Mus musculus [15]): 13.8%

CC(=O)Nc1ccc(OC(=O)c2ccccc2N(CCO[N+](=O)[O-])c2ccc(C)cc2)cc1
inhibition in vivo at 14 mg/kg (Mus musculus [1]): 21.8%
inhibition in vivo at 14 mg/kg (Rattus norvegicus [2]): 30%
inhibition in vivo at 14 mg/kg (Rattus norvegicus [3]): 24.4%
Activity (Rattus norvegicus [4]): Non-toxic
inhibition in vivo at 14 mg/kg (Rattus norvegicus [5]): 18%
inhibition in vivo at 14 mg/kg (Rattus norvegicus [6]): 36.8%
Activity (Rattus norvegicus [7]): Non-toxic
Activity [8]: 7.31%

CC(=O)Nc1ccc(OC(=O)c2ccc(N(CCO[N+](=O)[O-])c3ccccc3C(=O)Oc3ccc(NC(C)=O)cc3)cc2)cc1
inhibition in vivo at 10 mg/kg (Rattus norvegicus [16]): 13.7%
inhibition in vivo at 10 mg/kg (Rattus norvegicus [17]): 12.1%
inhibition in vivo at 10 mg/kg (Rattus norvegicus [18]): 11.7%
inhibition in vivo at 10 mg/kg (Mus musculus [19]): 11.2%
inhibition in vivo at 10 mg/kg (Rattus norvegicus [20]): 18.7%
Activity (Rattus norvegicus [21]): Non-toxic
Activity [8]: 2.46%

CC(=O)Nc1ccc(OC(=O)c2ccccc2N(CCO[N+](=O)[O-])c2ccc(S(N)(=O)=O)cc2)cc1
inhibition in vivo at 12 mg/kg (Mus musculus [22]): 26.2%
Activity (Rattus norvegicus [23]): Non-toxic
inhibition in vivo at 12 mg/kg (Rattus norvegicus [24]): 8.46%
inhibition in vivo at 12 mg/kg (Rattus norvegicus [25]): 9.41%
inhibition in vivo at 12 mg/kg (Rattus norvegicus [26]): 8.33%
Activity [8]: 5.88%
inhibition in vivo at 12 mg/kg (Rattus norvegicus [27]): 11.5%

O=C(O)Cc1ccccc1Nc1c(Cl)cccc1Cl [DICLOFENAC SODIUM]
inhibition in vivo at 20 mg/kg (Rattus norvegicus [28]): 42.1%
inhibition in vivo at 20 mg/kg (Rattus norvegicus [29]): 45%
inhibition in vivo at 20 mg/kg (Rattus norvegicus [30]): 73.3%
inhibition in vivo at 20 mg/kg (Rattus norvegicus [31]): 73.4%
inhibition in vivo at 20 mg/kg (Mus musculus [32]): 8.2%
